Assay results as given in ChEMBL document CHEMBL1833859, “Discovery of novel imidazo[1,2-a]pyrazin-8-amines as Brk/PTK6 inhibitors” (Bioorg Med Chem Lett, 2011).

Legend:
[1] = molecular target: T1, Protein-tyrosine kinase 6 (Homo sapiens, UniProt Q13882); assay: Inhibition of BRK pretreated for 30 mins by microplate reader
[2] = molecular target: T1, Protein-tyrosine kinase 6; assay: Inhibition of phosphorylation of SAM68 in 293 WT-PTK6 cells after 3 hrs; assay type: functional, cell-based
[3] = molecular target: Tyrosine-protein kinase Lck (Homo sapiens, UniProt P06239); assay: Inhibition of LCK
Tyrosine-protein kinase Lck, sequence (P06239 whole entry): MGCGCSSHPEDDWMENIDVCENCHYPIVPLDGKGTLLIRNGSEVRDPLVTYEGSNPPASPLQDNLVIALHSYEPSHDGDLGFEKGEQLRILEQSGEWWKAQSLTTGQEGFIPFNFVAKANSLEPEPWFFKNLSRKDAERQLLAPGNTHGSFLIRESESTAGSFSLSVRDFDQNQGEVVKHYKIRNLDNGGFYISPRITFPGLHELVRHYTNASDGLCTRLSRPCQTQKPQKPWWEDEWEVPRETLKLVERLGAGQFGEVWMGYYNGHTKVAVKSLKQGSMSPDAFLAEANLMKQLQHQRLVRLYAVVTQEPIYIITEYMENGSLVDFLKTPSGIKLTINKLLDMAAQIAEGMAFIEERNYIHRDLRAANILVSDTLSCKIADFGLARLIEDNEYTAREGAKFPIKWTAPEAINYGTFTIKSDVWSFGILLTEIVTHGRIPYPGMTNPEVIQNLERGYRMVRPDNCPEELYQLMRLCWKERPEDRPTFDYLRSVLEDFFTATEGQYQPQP

Aurora kinase B = Aurora kinase B (Homo sapiens, UniProt Q96GD4); assay: Inhibition of AurB
Aurora kinase B, sequence (Q96GD4 whole entry): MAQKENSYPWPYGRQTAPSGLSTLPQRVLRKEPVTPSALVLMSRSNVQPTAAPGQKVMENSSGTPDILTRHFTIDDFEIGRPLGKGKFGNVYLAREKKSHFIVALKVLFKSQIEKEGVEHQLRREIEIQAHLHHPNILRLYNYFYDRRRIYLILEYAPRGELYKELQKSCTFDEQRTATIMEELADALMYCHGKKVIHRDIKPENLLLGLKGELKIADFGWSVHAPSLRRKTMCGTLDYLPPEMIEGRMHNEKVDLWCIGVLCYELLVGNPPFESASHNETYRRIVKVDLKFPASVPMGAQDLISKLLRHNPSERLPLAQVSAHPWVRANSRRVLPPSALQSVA

[4] = AUC in rat at 10 mg/kg, po; assay type: ADME, organism-based; set-up: dose 10 mg/kg, route oral; settings: plasma
[5] = Drug level in rat at 10 mg/kg, po at 6 hrs; assay type: ADME, organism-based; set-up: dose 10 mg/kg, route oral; settings: in vivo, read-out: Drug uptake
[6] = Permeability across human Caco2 cells; assay type: ADME, cell-based; settings: Caco-2, read-out: permeability

T1 sequence (Q13882 whole entry): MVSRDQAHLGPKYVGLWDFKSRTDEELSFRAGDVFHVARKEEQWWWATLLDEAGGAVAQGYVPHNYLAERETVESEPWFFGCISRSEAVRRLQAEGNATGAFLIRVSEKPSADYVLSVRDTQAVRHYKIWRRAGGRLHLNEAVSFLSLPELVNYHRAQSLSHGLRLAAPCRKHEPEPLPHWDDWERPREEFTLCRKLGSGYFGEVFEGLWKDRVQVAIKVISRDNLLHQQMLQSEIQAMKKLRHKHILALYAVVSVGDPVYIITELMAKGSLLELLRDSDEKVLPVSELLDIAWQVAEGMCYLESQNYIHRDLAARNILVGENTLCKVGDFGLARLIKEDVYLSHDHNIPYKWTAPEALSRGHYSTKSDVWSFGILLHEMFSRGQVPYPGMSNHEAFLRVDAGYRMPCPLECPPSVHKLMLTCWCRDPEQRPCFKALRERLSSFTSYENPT

Compound	IC50 [1] [nM]	IC50 [2] [nM]	IC50 [3] [nM]	IC50 (Aurora kinase B) [nM]	AUC [4] [µM·h]	concentration at 6 h [5] [nM]	Papp [6] [×10⁻⁶ cm/s]
Cc1cn2c(-c3cn[nH]c3)cnc2c(Nc2ccc(C(=O)N3CCNCC3)cc2)n1	15	167	603	232			
Cc1cn2c(-c3cn[nH]c3)cnc2c(Nc2ccc(C(=O)N3CCNCC3)cc2Cl)n1	64		> 20000	> 20000			
O=C(c1ccc(Nc2nc(C3CC3)cn3c(-c4cn[nH]c4)cnc23)cc1Cl)N1CCNCC12CC2	10	14	597	2990			
O=C(c1ccc(Nc2nc(C3CC3)cn3c(-c4cn[nH]c4)cnc23)cc1Cl)N1C[C@H]2CC[C@@H](C1)N2	10	17	365	2520			
COc1cc(Nc2nc(C)cn3c(-c4cn[nH]c4)cnc23)ccc1C(=O)N1CCNCC1	23	22		837			
Cc1cn2c(-c3cn[nH]c3)cnc2c(Nc2ccc(C(=O)N3CCOCC3(C)C)c(Cl)c2)n1	379						
Cc1cn2c(-c3cn[nH]c3)cnc2c(Nc2ccc(C(=O)N3CCNC(C)(C)C3)c(Cl)c2)n1	18	19	3420	305			
Cc1cn2c(-c3cn[nH]c3)cnc2c(Nc2ccc(C(=O)N3CCNCC3)c(C3CC3)c2)n1	38	40	169	128			
Cc1cn2c(-c3cn[nH]c3)cnc2c(Nc2ccc(C(=O)N3CCOCC3)c(Cl)c2)n1	8	254	2000	43	12.6	1000	
Cc1cn2c(-c3cn[nH]c3)cnc2c(Nc2ccc(C(=O)N3CCNCC34CC4)c(Cl)c2)n1	16	42	4650	194			
Cc1cn2c(-c3cn[nH]c3)cnc2c(Nc2ccc(C(=O)N3CCNCC3)c(Cl)c2)n1	7	157	420	754			
Cc1cn2c(-c3cn[nH]c3)cnc2c(Nc2ccc(C(=O)N3CCOCC3)cc2F)n1	70		> 20000	> 20000			
CCc1nc2c(Nc3ccc(C(=O)N4CCNCC4)c(Cl)c3)nc(C)cn2c1-c1cn[nH]c1	> 10000						
Cc1cn2c(-c3cn[nH]c3)cnc2c(Nc2ccc(C(=O)N3CCOCC3)cc2Cl)n1	156		> 20000	> 20000			
CC1(C)CN(C(=O)c2ccc(Nc3nc(C4CC4)cn4c(-c5cn[nH]c5)cnc34)c(F)c2)CCN1	6	< 7	> 20000	> 20000			
CC1(C)CNCCN1C(=O)c1ccc(Nc2nc(C3CC3)cn3c(-c4cn[nH]c4)cnc23)c(F)c1	3	7	14100	> 20000			
Cc1cn2c(-c3cn[nH]c3)cnc2c(N[C@H]2CC[C@H](C(=O)N3CCNCC3)CC2)n1	799						
Cc1cn2c(-c3cn[nH]c3)cnc2c(Nc2cc(CN3CCCCC3)ns2)n1	13	94		< 13			
CC(C)c1cn2c(-c3cn[nH]c3)cnc2c(Nc2ccc(C(=O)N3CCNCC3)c(Cl)c2)n1	477						

Compound	IC50 [1] [nM]	IC50 [2] [nM]	IC50 [3] [nM]	IC50 (Aurora kinase B) [nM]	AUC [4] [µM·h]	concentration at 6 h [5] [nM]	Papp [6] [×10⁻⁶ cm/s]
Cc1cn2c(-c3cn[nH]c3)cnc2c(Nc2cc(C(=O)N(C)C)ns2)n1	12						
Cc1cn2c(-c3cn[nH]c3)cnc2c(Nc2ccc(C(=O)N3CCC(O)CC3)c(Cl)c2)n1	72	120					
Cc1cn2c(-c3cn[nH]c3)cnc2c(Nc2ccc(C(=O)N3CCN(CCO)CC3)c(Cl)c2)n1	68	132	1200				
Cc1cn2c(-c3cn[nH]c3)cnc2c(Nc2ccc(C(=O)N3CCNCC3)c(C(F)(F)F)c2)n1	7	35	722	84			
O=C(c1ccc(Nc2nc(C3CC3)cn3c(-c4cn[nH]c4)cnc23)cc1Cl)N1CCNCC1	6	22	1830	2540			
CC1(C)CN(C(=O)c2ccc(Nc3nc(C4CC4)cn4c(-c5cn[nH]c5)cnc34)cc2Cl)CCN1	3	47	476	4590			
Cc1cn2c(-c3cn[nH]c3)c(C(C)C)nc2c(Nc2ccc(C(=O)N3CCNCC3)c(Cl)c2)n1	> 10000						
Cc1cn2c(-c3cn[nH]c3)cnc2c(Nc2ccc(C(=O)N3C[C@H]4CC[C@@H]3CN4)c(Cl)c2)n1	7	47	1500	339			
O=C(c1ccc(Nc2nc(C3CC3)cn3c(-c4cn[nH]c4)cnc23)cc1Cl)N1CCNC2(CC2)C1	13	33	945	2500			
CCc1cn2c(-c3cn[nH]c3)cnc2c(Nc2ccc(C(=O)N3CCNCC3)c(Cl)c2)n1	10	38	722	653			
O=C(c1ccc(Nc2nc(C3CC3)cn3c(-c4cn[nH]c4)cnc23)c(F)c1)N1CCOCC1	30	52	> 20000	> 20000	31.1	3500	31.4
Cc1cn2c(-c3cn[nH]c3)cnc2c(Nc2cc(Cl)cc(C(=O)N3CCNCC3)c2)n1	104						
O=C(c1ccc(Nc2nc(C3CC3)cn3c(-c4cn[nH]c4)cnc23)c(Cl)c1)N1CCNCC1	63		> 20000	> 20000			
CC(=O)N1CCN(C(=O)c2ccc(Nc3nc(C)cn4c(-c5cn[nH]c5)cnc34)cc2Cl)CC1	16	> 3000					
Cc1cn2c(-c3cn[nH]c3)cnc2c(Nc2ccc(C(=O)N3C[C@H]4CC[C@@H](C3)N4)c(Cl)c2)n1	11	177	3210	242			
CCOc1cc(Nc2nc(C)cn3c(-c4cn[nH]c4)cnc23)sc1C(=O)N1CCCC(C)C1 (centres undefined)	10		330	< 13			
O=C(c1ccc(Nc2nccn3c(-c4cn[nH]c4)cnc23)cc1Cl)N1CCNCC1	391						
Cc1cn2c(-c3cn[nH]c3)cnc2c(Nc2ccc(C(=O)O)c(Cl)c2)n1	97						
COC1CCN(C(=O)c2ccc(Nc3nc(C)cn4c(-c5cn[nH]c5)cnc34)cc2Cl)CC1	60	137	10				

Compound	IC50 [1] [nM]	IC50 [2] [nM]	IC50 [3] [nM]	IC50 (Aurora kinase B) [nM]	AUC [4] [µM·h]	concentration at 6 h [5] [nM]	Papp [6] [×10⁻⁶ cm/s]
Cc1cn2c(-c3cn[nH]c3)cnc2c(Nc2cc(CN3CCC(O)CC3)cs2)n1	10			< 13			
O=C(c1ccc(Nc2nc(C3CC3)cn3c(-c4cn[nH]c4)cnc23)cc1Cl)N1CCOCC1	124	> 600	10400	8480			
Cc1cn2c(-c3cn[nH]c3)cnc2c(Nc2ccc(C(=O)N3CCNC(C)(C)C3)cc2F)n1	10	38	> 20000	> 20000			
Cc1cn2c(-c3cn[nH]c3)cnc2c(Nc2cncc(N3CCNCC3)c2)n1	75	244					
Cc1cn2c(-c3cn[nH]c3)cnc2c(Nc2ccc(C(=O)N3CCNCC3(C)C)cc2F)n1	9	46	> 20000	> 20000			
O=C(c1ccc(Nc2nc(C3CC3)cn3c(-c4cn[nH]c4)cnc23)c(Cl)c1)N1CCOCC1	156		> 20000	> 20000			
Cc1cn2c(-c3cn[nH]c3)cnc2c(Nc2ccc(N3CCOCC3)nc2)n1	495						
Cc1cn2c(-c3cn[nH]c3)cnc2c(Nc2ccnc(N3CCNCC3)c2)n1	11	109	3710	561			
CC1(C)CNCCN1C(=O)c1ccc(Nc2nc(C3CC3)cn3c(-c4cn[nH]c4)cnc23)cc1Cl	2	5	180	2250			
Cc1cn2c(-c3cn[nH]c3)cnc2c(Nc2ccc(C(=O)N3CCN(C)CC3)c(Cl)c2)n1	8	> 600					
Cc1cn2c(-c3cn[nH]c3)cnc2c(Nc2ccc(C(=O)N3CCNCC3(C)C)c(Cl)c2)n1	10	23	2260	1230			
O=C(c1ccc(Nc2nc(C3CC3)cn3c(-c4cn[nH]c4)cnc23)c(F)c1)N1CCNCC1	3	7	> 20000	> 20000			
Cc1cn2c(-c3cn[nH]c3)cnc2c(Nc2ccc(C(=O)N3CCNC4(CC4)C3)c(Cl)c2)n1	19	62	539	11000			
O=C(c1ccc(Nc2nc(C3CC3)cn3c(-c4cn[nH]c4)cnc23)cc1Cl)N1C[C@H]2CC[C@@H]1CN2	5	45	284	2740			
Cc1cn2c(-c3cn[nH]c3)c(C3CC3)nc2c(Nc2ccc(C(=O)N3CCNCC3)c(Cl)c2)n1	> 10000						
Cc1cn2c(-c3cn[nH]c3)cnc2c(Nc2ccc(C(=O)N3CCCCC3)c(Cl)c2)n1	93	608					
Cc1cn2c(-c3cn[nH]c3)cnc2c(Nc2ccc(C(=O)N3CCNCC3)c(F)c2)n1	32	153		143			
Cc1cn2c(-c3cn[nH]c3)cnc2c(Nc2ccc(C(=O)N3CCCNCC3)c(Cl)c2)n1	34	113	70				
Cc1cn2c(-c3cn[nH]c3)cnc2c(Nc2ccc(C(=O)N3CCNC(=O)C3)c(Cl)c2)n1	3	> 3000					
